Experimental findings from ChEMBL document CHEMBL1201862, “PubChem BioAssay data set” (2004) are described below.

Test systems include ACHN; HCC 2998; HOP-92; IGROV-1; M19-MEL; MOLT-4; OVCAR-8; RXF 393; SK-MEL-28; SK-MEL-2; SW-620; U-251; M14; NCI-H226; OVCAR-4; SN12C; UACC-62; BT-549; MDA-N; T47D.
Experiment in all cases: inhibition of tumour cell growth, NCI panel, 48 h

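Grown in 96-well plates, cells were treated for 48 hours with each compound at five concentrations. Insufficient inhibition: endpoint recorded as highest concentration tested. GI50 is the concentration that inhibits growth by half.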 Activity calls are given as the source filed them. No stated cut-off is given here; in the data, active = GI50 up to about 1.1 µM and inactive = higher.

As to `O=C(O)C12C3C4C1C1C2C3C1(Br)C41OCCO1` (stereo unspecified), the GI50 in the assay with ACHN, in the assay on HCC 2998, in the assay with HOP-92, in the assay with IGROV-1, in the assay on M19-MEL and with MOLT-4 was > 100 µM (inactive) throughout. The GI50 with OVCAR-8, in the assay with RXF 393, in the assay with SK-MEL-28, with SK-MEL-2, with SW-620 and in the assay on U-251 was > 100 µM (inactive) in each case.

Turning to `COc1ccc2nc(NC(=O)C(=O)C(C#N)c3ccc([N+](=O)[O-])cc3)sc2c1` (stereo unspecified), the GI50 with ACHN, in the assay with HCC 2998, in the assay on HOP-92, in the assay with IGROV-1, with M14 and in the assay with M19-MEL was > 100 µM (inactive) in each case. Further, the GI50 was 38.3 µM (inactive) with MOLT-4; > 100 µM (inactive) in the assay with NCI-H226; > 100 µM (inactive) with OVCAR-4; > 100 µM (inactive) with OVCAR-8; > 100 µM (inactive) in the assay with RXF 393; > 100 µM (inactive) in the assay with SK-MEL-28. For the same compound, the GI50 in the assay on SK-MEL-2 was > 100 µM (inactive); with SN12C it was > 100 µM (inactive); in the assay with SW-620, > 100 µM (inactive); in the assay with U-251, > 100 µM (inactive); in the assay with UACC-62, 46 µM (inactive).

With `O=C1C=CC(=O)C2=C1[C@@H](O)C1CC=CC3C(=O)O[C@@H]2C31` (stereo partly specified), the GI50 in the assay on ACHN was 36.5 µM (inactive); in the assay on HCC 2998 it was 18.5 µM (inactive); with HOP-92 it was 26.2 µM (inactive); in the assay with IGROV-1, 14.8 µM (inactive); in the assay with M14, 19.6 µM (inactive); in the assay on M19-MEL, 23.2 µM (inactive). Besides, the GI50 with MOLT-4 is 20 µM (inactive); in the assay with NCI-H226 it was 37.5 µM (inactive); with OVCAR-4 it was 13.2 µM (inactive); with OVCAR-8, 39.5 µM (inactive); with RXF 393, 18 µM (inactive); with SK-MEL-28 it was > 45.8 µM (inactive). Moreover, the GI50 in the assay on SK-MEL-2 was 18.2 µM (inactive); in the assay with SN12C it was 20.7 µM (inactive); in the assay with SW-620 it was 22.4 µM (inactive); in the assay on U-251, > 77.8 µM (inactive); in the assay with UACC-62, 19.2 µM (inactive).

Regarding `O=S(=O)(c1ccccc1)n1cc(C[P+](c2ccccc2)(c2ccccc2)c2ccccc2)c2ccccc21`, the GI50 with ACHN was 15.3 µM (inactive); in the assay on HCC 2998, 3.36 µM (inactive); with HOP-92, 1.87 µM (inactive); with IGROV-1, 2.08 µM (inactive); with M14, 2.64 µM (inactive); in the assay on M19-MEL, 4.29 µM (inactive). For the same compound, the GI50 in the assay with MOLT-4 was 4.91 µM (inactive); with NCI-H226, 4.81 µM (inactive); in the assay on OVCAR-4 it was 9.95 µM (inactive); in the assay on OVCAR-8, 2.81 µM (inactive); in the assay on RXF 393 it was 6.35 µM (inactive); in the assay with SK-MEL-28, 2.7 µM (inactive). Further, the GI50 in the assay with SK-MEL-2 is 2.3 µM (inactive); with SN12C it was 5.69 µM (inactive); in the assay on SW-620, 4.59 µM (inactive); with U-251, 3.79 µM (inactive); with UACC-62 it was 5.12 µM (inactive).

Take `CN1C(=O)CC2(C)c3cc(O)ccc3N(C)C12` (stereo unspecified): the GI50 with ACHN is 63.2 µM (inactive); in the assay on BT-549, 16.9 µM (inactive); with HCC 2998, > 100 µM (inactive); in the assay with HOP-92, 56.9 µM (inactive); in the assay on IGROV-1, 46.6 µM (inactive); in the assay with M14 it was 27.2 µM (inactive). In addition, the GI50 in the assay with M19-MEL was 11.5 µM (inactive); in the assay with MDA-N, 17.6 µM (inactive); in the assay with MOLT-4, 19.3 µM (inactive); in the assay on NCI-H226, 40.6 µM (inactive); in the assay on OVCAR-4 it was 5.45 µM (inactive); in the assay with OVCAR-8, 30.8 µM (inactive). Moreover, the GI50 was 29.4 µM (inactive) in the assay on RXF 393; 50.7 µM (inactive) in the assay with SK-MEL-28; 41.5 µM (inactive) in the assay with SK-MEL-2; 15.5 µM (inactive) in the assay on SN12C; 20 µM (inactive) in the assay on SW-620; 31.8 µM (inactive) with T47D. For the same compound, the GI50 in the assay on U-251 was 19.2 µM (inactive); in the assay on UACC-62, 20.1 µM (inactive).

For the compound `COC(=O)[C@@]1(C)/C(=N/NS(=O)(=O)c2ccc(C)cc2)CCC[C@@H]1C`, the GI50 with ACHN, in the assay on HCC 2998, in the assay with HOP-92, in the assay on IGROV-1, in the assay on M14 and in the assay with M19-MEL was > 100 µM (inactive) each time. In addition, the GI50 with MOLT-4, in the assay on NCI-H226, in the assay with OVCAR-4, in the assay on OVCAR-8, with RXF 393 and with SK-MEL-28 was > 100 µM (inactive) throughout. In addition, the GI50 in the assay on SK-MEL-2, in the assay with SN12C, in the assay with U-251 and in the assay on UACC-62 was > 100 µM (inactive) each time.

For the compound `NC1=NCN(C2OC(CO)C(O)C2O)C(=O)N1` (stereo unspecified), the GI50 was 0.802 µM (active) in the assay with ACHN; 9.62 µM (inactive) with BT-549; 40.4 µM (inactive) in the assay with HCC 2998; 391 µM (inactive) with HOP-92; 5.74 µM (inactive) in the assay on IGROV-1; 5.71 µM (inactive) with M14. In addition, the GI50 in the assay with M19-MEL is 70.6 µM (inactive); in the assay with MDA-N it was 7.87 µM (inactive); in the assay with MOLT-4, 5.21 µM (inactive); with NCI-H226, 5.57 µM (inactive); with OVCAR-4 it was 139 µM (inactive); in the assay on OVCAR-8 it was 415 µM (inactive). Moreover, the GI50 with RXF 393 is 8.99 µM (inactive); with SK-MEL-28, 57.3 µM (inactive); in the assay on SK-MEL-2 it was 0.977 µM (active); with SN12C, 349 µM (inactive); with SW-620, 16.7 µM (inactive); with T47D, 15 µM (inactive). The GI50 with U-251 is 27.9 µM (inactive); in the assay with UACC-62 it was 15.2 µM (inactive).

For `NC(=S)N1N=C2c3ccccc3CC[C@H]2[C@@H]1c1cccs1`, the GI50 was 49.2 µM (inactive) in the assay on ACHN; 37.4 µM (inactive) in the assay on HCC 2998; 68.7 µM (inactive) in the assay with HOP-92; 37.2 µM (inactive) in the assay with IGROV-1; 22 µM (inactive) in the assay with M14; 19.9 µM (inactive) in the assay on M19-MEL. Also, the GI50 in the assay on MOLT-4 was 21.5 µM (inactive); in the assay on NCI-H226, 29 µM (inactive); in the assay with OVCAR-4, 45.2 µM (inactive); with OVCAR-8, 32.7 µM (inactive); in the assay on RXF 393, 16.8 µM (inactive); in the assay with SK-MEL-28 it was 44.3 µM (inactive). The GI50 in the assay on SK-MEL-2 was 22.1 µM (inactive); in the assay on SN12C, 39.3 µM (inactive); in the assay with SW-620 it was 38.7 µM (inactive); in the assay on U-251 it was 35.3 µM (inactive); in the assay with UACC-62, 33.7 µM (inactive).

With `COc1cc(OC)c(/C=C2\N=C(C)N(Nc3nnc(NN4C(=O)/C(=C/c5c(OC)cc(OC)cc5OC)N=C4C)c4ccccc34)C2=O)c(OC)c1`, the GI50 in the assay with ACHN, in the assay on HOP-92, in the assay with IGROV-1, with M14, in the assay with M19-MEL and in the assay with MOLT-4 was > 100 µM (inactive) in each case. The GI50 in the assay with NCI-H226, in the assay on OVCAR-4, with OVCAR-8, in the assay on RXF 393, in the assay with SK-MEL-28 and in the assay on SN12C was > 100 µM (inactive) each time. Besides, the GI50 in the assay on SW-620, in the assay with U-251 and in the assay on UACC-62 was > 100 µM (inactive) in each case.

Turning to `CC(CCC(=O)O)c1ccc(Br)cc1` (stereo unspecified), the GI50 with ACHN, in the assay on HCC 2998, in the assay with IGROV-1, in the assay with M14, with M19-MEL and in the assay on MOLT-4 was > 100 µM (inactive) throughout. The GI50 in the assay on NCI-H226, in the assay with OVCAR-4, in the assay on OVCAR-8, with RXF 393, in the assay on SK-MEL-28 and with SK-MEL-2 was > 100 µM (inactive) in each case. Also, the GI50 with SN12C, in the assay with SW-620, in the assay on U-251 and with UACC-62 was > 100 µM (inactive) in each case.

On to `NCCCCNc1ccc2c(=O)[nH][nH]c(=O)c2c1`, for which the GI50 in the assay on ACHN, in the assay on HCC 2998, in the assay on HOP-92, in the assay with IGROV-1, in the assay with M14 and with M19-MEL was > 100 µM (inactive) in each case. The GI50 in the assay on MOLT-4, in the assay with NCI-H226, in the assay with OVCAR-4, in the assay with OVCAR-8, with RXF 393 and in the assay with SK-MEL-28 was > 100 µM (inactive) each time. The GI50 in the assay with SK-MEL-2, with SN12C, in the assay with SW-620, in the assay with U-251 and with UACC-62 was > 100 µM (inactive) each time.

As to `CCCc1nc(N)nc(C(=O)Nc2cccc(C(F)(F)F)c2)c1CC`, the GI50 in the assay with ACHN, in the assay on HCC 2998, with HOP-92, in the assay with IGROV-1, in the assay on M14 and in the assay with M19-MEL was > 100 µM (inactive) throughout. Besides, the GI50 in the assay with MOLT-4, with NCI-H226, in the assay on OVCAR-4, with OVCAR-8, with RXF 393 and in the assay on SK-MEL-28 was > 100 µM (inactive) in each case. For the same compound, the GI50 in the assay on SK-MEL-2, in the assay with SN12C, in the assay with SW-620, in the assay on U-251 and with UACC-62 was > 100 µM (inactive) throughout.
